Reference: patent US20200407717A1, “METHODS OF MODULATING ANTISENSE ACTIVITY” (Ionis Pharmaceuticals, Inc., priority 2018, published 2020)
e = 2'-O-(2-methoxyethyl) (MOE); d = 2'-deoxy (DNA)

System: Malat1 RNA
Test: Antisense activity by RT-qPCR, Malat1, A431 cells
Type: cell-based
Protocol: A431 cells were grown at 10,000 cells per well and pre-treated with a variety of growth factors to determine if the addition of exogenous growth factors affects antisense activity or uptake of modified antisense oligonucleotides in a cell. The growth factors used were EGF, insulin growth factor (IGF), transforming growth factor (TGF), […] (VEGF), hepatocyte growth factor (HGF), platelet growth factor (PGF) and fibroblasts growth factor (FGF). To test antisense activity, cells were treated for 4 hours with a growth factor or vehicle alone, and then treated with compound no. 25690 (complementary to Drosha), compound no. 395254 (complementary to Malat1), or vehicle alone. RNA was isolated from the cells and Drosha or Malat1 RNA levels were measured by RT-qPCR. Human primer probe set 13816 (forward sequence […], designated herein as SEQ ID NO: 3; reverse sequence […], designated herein as SEQ ID NO: 4; probe sequence […], designated herein as SEQ ID NO: 5) was used to measure Drosha mRNA levels and primer probe set RTS2736 (forward sequence […], designated herein as SEQ ID NO: 6; reverse sequence […], designated herein as SEQ ID NO: 7; probe sequence TGCCACATCGCCACCCCGT, designated herein as SEQ ID NO: 8) was used to measure Malat1 RNA levels. Drosha and Malat1 RNA levels were normalized to total RNA content, as measured by RIBOGREEN®. Results are presented in the tables below as normalized RNA levels, relative to untreated control cells.
A431 cells were treated with EGF or TGF at 200 ng/mL in the presence or absence of 1 μM of the EGFR tyrosine kinase inhibitor PD174265. The cells were then treated with compound no. 25690 or compound no. 395254 as in Example 8. Total RNA was isolated and analyzed by RT-qPCR, as in Example 8.
Following siRNA treatment, cells were treated with compound no. 25690 or compound no. 395254 in the presence or absence of EGF. 16 hours after treatment with a PS-ASO with or without EGF, cells were harvested, and RNA levels were analyzed via RT-qPCR as in Example 8.

**Q.** What does the source list for “GGCATATGCAGATAATGTTC (sugars from the 5' end e5 d10 e5, all phosphorothioate, methylation of C not given here) [compound 395254]”?
**A.** Malat1 RNA (% Control) (2.0 nM, Control): 100.0 % Control; Malat1 RNA (% Control) (2.0 nM, Control Luciferase siRNA): 100.0 % Control; Malat1 RNA (% Control) (2.0 nM, Control Luciferase siRNA, Table 27): 100 % Control; Malat1 RNA (% Control) (2.0 nM, Control luciferase + EGF): 100 % Control; Malat1 RNA (% Control) (2.0 nM, Control, Table 21): 100.0 % Control; Malat1 RNA (% Control) (2.0 nM, EGF): 100.0 % Control; Malat1 RNA (% Control) (2.0 nM, EGFR siRNA-1): 100.0 % Control; Malat1 RNA (% Control) (2.0 nM, EGFR siRNA-2): 100.0 % Control; Malat1 RNA (% Control) (2.0 nM, EGFR siRNA-2 + EGF): 100 % Control; Malat1 RNA (% Control) (2.0 nM, EGFR siRNA-2, Table 27): 100 % Control; Malat1 RNA (% Control) (2.0 nM, TGF): 100.0 % Control; Malat1 RNA (% Control) (2.0 nM, TGF+PD174265): 100.0 % Control; Malat1 RNA (% Control) (2.0 nM, TGF, Table 21): 100.0 % Control; Malat1 RNA (% Control) (3.9 nM, Control): 109.0 % Control; Malat1 RNA (% Control) (3.9 nM, Control Luciferase siRNA): 72.7 % Control; Malat1 RNA (% Control) (3.9 nM, Control Luciferase siRNA, Table 27): 110.2 % Control; Malat1 RNA (% Control) (3.9 nM, Control luciferase + EGF): 108.2 % Control; Malat1 RNA (% Control) (3.9 nM, Control, Table 21): 110.2 % Control; Malat1 RNA (% Control) (3.9 nM, EGF): 76.0 % Control; Malat1 RNA (% Control) (3.9 nM, EGFR siRNA-1): 108.4 % Control; Malat1 RNA (% Control) (3.9 nM, EGFR siRNA-2): 90.4 % Control; Malat1 RNA (% Control) (3.9 nM, EGFR siRNA-2 + EGF): 108.2 % Control; Malat1 RNA (% Control) (3.9 nM, EGFR siRNA-2, Table 27): 105.2 % Control; Malat1 RNA (% Control) (3.9 nM, TGF): 99.9 % Control; Malat1 RNA (% Control) (3.9 nM, TGF+PD174265): 108.2 % Control; Malat1 RNA (% Control) (3.9 nM, TGF, Table 21): 105.2 % Control; Malat1 RNA (% Control) (7.8 nM, Control): 127.0 % Control; Malat1 RNA (% Control) (7.8 nM, Control Luciferase siRNA): 81.9 % Control; Malat1 RNA (% Control) (7.8 nM, Control Luciferase siRNA, Table 27): 99.3 % Control; Malat1 RNA (% Control) (7.8 nM, Control luciferase + EGF): 91.2 % Control; Malat1 RNA (% Control) (7.8 nM, Control, Table 21): 99.3 % Control; Malat1 RNA (% Control) (7.8 nM, EGF): 98.1 % Control; Malat1 RNA (% Control) (7.8 nM, EGFR siRNA-1): 103.1 % Control; Malat1 RNA (% Control) (7.8 nM, EGFR siRNA-2): 85.1 % Control; Malat1 RNA (% Control) (7.8 nM, EGFR siRNA-2 + EGF): 99.2 % Control; Malat1 RNA (% Control) (7.8 nM, EGFR siRNA-2, Table 27): 105.2 % Control; Malat1 RNA (% Control) (7.8 nM, TGF): 101.8 % Control; Malat1 RNA (% Control) (7.8 nM, TGF+PD174265): 91.2 % Control; Malat1 RNA (% Control) (7.8 nM, TGF, Table 21): 105.2 % Control; Malat1 RNA (% Control) (15.6 nM, Control): 125.6 % Control; Malat1 RNA (% Control) (15.6 nM, Control Luciferase siRNA): 61.0 % Control; Malat1 RNA (% Control) (15.6 nM, Control Luciferase siRNA, Table 27): 87.2 % Control; Malat1 RNA (% Control) (15.6 nM, Control luciferase + EGF): 67.2 % Control; Malat1 RNA (% Control) (15.6 nM, Control, Table 21): 77.2 % Control; Malat1 RNA (% Control) (15.6 nM, EGF): 96.4 % Control; Malat1 RNA (% Control) (15.6 nM, EGFR siRNA-1): 98.4 % Control; Malat1 RNA (% Control) (15.6 nM, EGFR siRNA-2): 82.5 % Control; Malat1 RNA (% Control) (15.6 nM, EGFR siRNA-2 + EGF): 99.2 % Control; Malat1 RNA (% Control) (15.6 nM, EGFR siRNA-2, Table 27): 97.2 % Control; Malat1 RNA (% Control) (15.6 nM, TGF): 93.2 % Control; Malat1 RNA (% Control) (15.6 nM, TGF+PD174265): 77.2 % Control; Malat1 RNA (% Control) (15.6 nM, TGF, Table 21): 107.2 % Control; Malat1 RNA (% Control) (31.3 nM, Control): 120.2 % Control; Malat1 RNA (% Control) (31.3 nM, Control Luciferase siRNA): 47.0 % Control; Malat1 RNA (% Control) (31.3 nM, Control Luciferase siRNA, Table 27): 76.3 % Control; Malat1 RNA (% Control) (31.3 nM, Control luciferase + EGF): 58.7 % Control; Malat1 RNA (% Control) (31.3 nM, Control, Table 21): 66.3 % Control; Malat1 RNA (% Control) (31.3 nM, EGF): 111.9 % Control; Malat1 RNA (% Control) (31.3 nM, EGFR siRNA-1): 67.4 % Control; Malat1 RNA (% Control) (31.3 nM, EGFR siRNA-2): 57.7 % Control; Malat1 RNA (% Control) (31.3 nM, EGFR siRNA-2 + EGF): 114.0 % Control; Malat1 RNA (% Control) (31.3 nM, EGFR siRNA-2, Table 27): 95.9 % Control; Malat1 RNA (% Control) (31.3 nM, TGF): 109.8 % Control; Malat1 RNA (% Control) (31.3 nM, TGF+PD174265): 68.7 % Control; Malat1 RNA (% Control) (31.3 nM, TGF, Table 21): 55.9 % Control; Malat1 RNA (% Control) (62.5 nM, Control): 109.6 % Control; Malat1 RNA (% Control) (62.5 nM, Control Luciferase siRNA): 33.2 % Control; Malat1 RNA (% Control) (62.5 nM, Control Luciferase siRNA, Table 27): 67.2 % Control; Malat1 RNA (% Control) (62.5 nM, Control luciferase + EGF): 54.2 % Control; Malat1 RNA (% Control) (62.5 nM, Control, Table 21): 57.2 % Control; Malat1 RNA (% Control) (62.5 nM, EGF): 85.9 % Control; Malat1 RNA (% Control) (62.5 nM, EGFR siRNA-1): 45.0 % Control; Malat1 RNA (% Control) (62.5 nM, EGFR siRNA-2): 43.6 % Control; Malat1 RNA (% Control) (62.5 nM, EGFR siRNA-2 + EGF): 79.7 % Control; Malat1 RNA (% Control) (62.5 nM, EGFR siRNA-2, Table 27): 77.2 % Control; Malat1 RNA (% Control) (62.5 nM, TGF): 91.4 % Control; Malat1 RNA (% Control) (62.5 nM, TGF+PD174265): 54.2 % Control; Malat1 RNA (% Control) (62.5 nM, TGF, Table 21): 47.2 % Control; Malat1 RNA (% Control) (125 nM, Control): 131.6 % Control; Malat1 RNA (% Control) (125 nM, Control Luciferase siRNA): 18.9 % Control; Malat1 RNA (% Control) (125 nM, Control Luciferase siRNA, Table 27): 44 % Control; Malat1 RNA (% Control) (125 nM, Control luciferase + EGF): 37.0 % Control; Malat1 RNA (% Control) (125 nM, Control, Table 21): 44.0 % Control; Malat1 RNA (% Control) (125 nM, EGF): 62.3 % Control; Malat1 RNA (% Control) (125 nM, EGFR siRNA-1): 26.5 % Control
